According to paper PMC3983056 (PLoS Pathogens, 2014):
Several values for one entry are separate records, joined by “and”; a condition that tells them apart may be missing. Identical values can stand only once. Like-named read-outs stand apart in the source and are kept apart here.

How the values were obtained:
[1] = tested on: HIV expressing a luciferase reporter gene (NL4-3-Luc) in latently infected primary CD4 T cells; experiment: microbe, parasite or virus in culture; assay type: cell-based; settings: continuous 48 hours, cells from three healthy donors, mean ± SD
Description: To assess clinically tested HDACi for their ability to activate HIV from latency, we first employed a previously described in vitro HIV latency model, [30] with several modifications to increase the sensitivity of detection. The assay involves freshly isolated naïve CD4 T cells from healthy donors polarized to a Th0 phenotype, which mimics memory CD4 T cells. These Th0 cells are then infected with HIV expressing a luciferase reporter gene and cultured for an additional 7 to 10 days until a latent infection is established.
Total peripheral blood mononuclear cells (PBMCs) were obtained from healthy HIV-negative donors by leukapheresis (AllCells, Inc, Emeryville, CA). […] Purified naive CD4+ T cells were activated by incubation with anti-CD3/CD28 magnetic Dynabeads (1 bead: 2 cells ratio, Life Technologies), 1 µg/ml anti-IL-4 (R&D Systems, Minneapolis, MN), 2 µg/ml anti-IL-12p70 antibodies (R&D Systems), and 10 ng/ml TGF-β (R&D Systems) for 3 days, [59]. Following the removal of anti-CD3/CD28 beads and antibodies, cells were maintained in 30 U/ml IL-2 (Life Technologies) for 2 days. Cells were then infected with NL4.3-Luc in the presence of 50 µg/ml DEAE for 3 hours. Cells were maintained in the continued presence of 30 U/ml IL-2 throughout the infection and subsequent rest period with culture medium with fresh IL-2 replaced every 2–3 days. Seven days post-infection, 20 µl of latently infected cells were dispensed into 384 well plates using a MicroFlo dispenser (Biotek Insturments, VT) at 10,000 cells/well containing 100 nl of compound solutions delivered by the Echo acoustic-based liquid dispenser (Labcyte, Sunnyvale, CA). After a 48-hour incubation, 16 µl/well BriteGlo (Promega, Madison, WI) was added and luminescence measured using the Envision plate reader (Perkin Elmer, Waltham, MA). Compound-associated cytotoxicity was determined in latently infected cells in parallel with the virus activation assay. Cells were incubated with compounds for 48 hours at 37°C, and cell viability was determined using Cell Titer Glo reagent (Promega).

[2] = Compound-associated cytotoxicity in latently infected cells (Cell Titer Glo); assay type: cell-based, human; settings: human, latently infected (NL4.3-Luc) primary CD4+ T cells, continuous 48 hours, 50% cell viability reduction, three donors, mean ± SD
Description: Total peripheral blood mononuclear cells (PBMCs) were obtained from healthy HIV-negative donors by leukapheresis (AllCells, Inc, Emeryville, CA). Naive CD4+ T cells were purified by negative selection using EasySep magnetic beads (StemCells, Inc, Vancouver, Canada) and cultured in RPMI with 10% fetal bovine serum (FBS), penicillin/streptomycin, 1% nonessential amino acids (Life Technologies, Carlsbad, CA), 1% sodium pyruvate (Life Technologies) and 495 nM beta-mercaptoethanol (Sigma Aldrich, St. Louis, MO) in a 37°C, 5% CO2 incubator. Purified naive CD4+ T cells were activated by incubation with anti-CD3/CD28 magnetic Dynabeads (1 bead: 2 cells ratio, Life Technologies), 1 µg/ml anti-IL-4 (R&D Systems, Minneapolis, MN), 2 µg/ml anti-IL-12p70 antibodies (R&D Systems), and 10 ng/ml TGF-β (R&D Systems) for 3 days, [59]. Following the removal of anti-CD3/CD28 beads and antibodies, cells were maintained in 30 U/ml IL-2 (Life Technologies) for 2 days. Cells were then infected with NL4.3-Luc in the presence of 50 µg/ml DEAE for 3 hours. Cells were maintained in the continued presence of 30 U/ml IL-2 throughout the infection and subsequent rest period with culture medium with fresh IL-2 replaced every 2–3 days. Seven days post-infection, 20 µl of latently infected cells were dispensed into 384 well plates using a MicroFlo dispenser (Biotek Insturments, VT) at 10,000 cells/well containing 100 nl of compound solutions delivered by the Echo acoustic-based liquid dispenser (Labcyte, Sunnyvale, CA). After a 48-hour incubation, 16 µl/well BriteGlo (Promega, Madison, WI) was added and luminescence measured using the Envision plate reader (Perkin Elmer, Waltham, MA). Compound-associated cytotoxicity was determined in latently infected cells in parallel with the virus activation assay. Cells were incubated with compounds for 48 hours at 37°C, and cell viability was determined using Cell Titer Glo reagent (Promega).

HIV = settings: cited from earlier work
[3] = tested on: latent HIV in resting CD4 T cells from HIV-infected patients on suppressive cART; assay type: cell-based; settings: for HIV RNA avg: Figure 4, 25 nM PNB, one value per donor; for persistence of intracellular HIV RNA induction: pulse RMD 4 hours, VOR 24 hours, PNB 24 hours, 6 to 48 hours
Description: (§1) To examine the kinetics of HIV induction, we analyzed cell-associated viral RNA levels at 6, 12, 24, and 48 hours after treatment initiation.
(§2) Lysates were filtered through a Qiashredder (Qiagen).

[4] = tested on: total class I and II HDAC enzyme activity in resting CD4 T cells; settings: pulse RMD 4 hours, VOR 24 hours, PNB 24 hours, 6 to 48 hours
Description: Resting CD4 T cells obtained from HIV-infected patients on suppressive cART were incubated with serial dilutions of HDACi in 96-well plates at 10,000 cells/well for indicated time and then lysed by repeated freezing and thawing. Total cellular HDAC activity was measured using the HDAC-Glo I/II assay kit (Promega) according to the manufacturer's protocol.

[5] = Cell culture medium protein binding by equilibrium dialysis, HPLC/mass spectrometry; assay type: in vitro ADME
[6] = tested on: latent HIV in memory CD4 T cells from HIV-infected patients on suppressive cART; experiment: Ex vivo activation of HIV transcription, cell-associated HIV RNA, memory CD4 T cells; assay type: cell-based; settings: memory CD4 T cells, 1 µM VOR
Description: as §1, §2

[7] = tested on: latently infected cells expressing Bcl2; set-up: method as in PMID 22406268; settings: in vitro latency model with ectopic Bcl2; cited from earlier work
[8] = tested on: latent HIV in resting CD4 T cells from HIV-infected patients on suppressive cART; experiment: Ex vivo release of extracellular HIV RNA into culture supernatants, resting CD4 T cells; assay type: cell-based; settings: resting CD4 T cells
Description: (§3) HIV-infected patients participating in the study were selected based on sustained plasma viral load suppression (<50 copies/ml for >12 months), CD4 counts (>350 cells/µL), and absence of co-infection with hepatitis B or C virus (Supplementary Table S1). Clinical laboratory results were reconfirmed 2 weeks before leukapheresis or blood draw. Leukapheresis was conducted for 3–4 hours, and samples were processed within 2 hours after collection. The leukapheresis product was diluted 1∶1 with PBS and layered over Ficoll for isolation of PBMCs. […] Resting CD4 T cells were isolated by first enriching total CD4 T cells (StemCell Technologies) and subsequently depleting HLA-DR-, CD25-, and CD69-positive cells via negative selection (Miltenyi Biotec, Auburn, CA).
(§4) To assess HIV activation by HDACi, up to 5 million CD4 T cells were plated in 24-well plates in 2.5 ml of media, supplemented with antiretrovirals (ARVs) (100 nM elvitegravir and 100–300 nM efavirenz) for the entire duration of culture incubation. HDACi were added at specified concentrations on day 0 and cells or culture supernatants were harvested for the analysis of HIV RNA at the indicated time points (6–48 hours or 6–7 days, respectively). For HDACi pulse treatment, cultures were washed twice using ARV-containing media at 4 or 24 hours after addition of HDACi and incubated with ARVs until harvest. To measure HIV RNA levels, 1 ml of culture supernatant was analyzed by a robotic COBAS AmpliPrep/TaqMan system (Roche Diagnostics, Indianapolis, IN), which extracts total nucleic acid and quantifies HIV RNA in copies per milliliter using the HIV-1 Test, v2.0 kit (Roche Diagnostics). For the measurement of cell-associated HIV RNA levels, cells were washed with PBS, counted, and lysed (Qiagen RLT buffer, 400 µl for every 2 million cells; Qiagen, Venlo, Netherlands). Lysates were filtered through a Qiashredder (Qiagen). Total RNA was prepared from the lysates (400 µl) using a robotic system (QIAsymphony, Qiagen) that incorporates a DNase I digestion step to eliminate cellular DNA. The resulting total RNA was eluted with 200 µl of buffer, diluted to 1 ml with nuclease-free water, and analyzed by COBAS using the HIV-1 Test v2.0 kit. Preparations of both cell-associated RNA and supernatant total nucleic acids were tested for potential contamination with HIV DNA and/or host DNA by performing the PCR amplification in the presence and absence of reverse transcriptase and by a detection of GAPDH-encoding host DNA sequence.
(§5) HIV RNA-induction experiments were conducted using 5 to 6 replicates for every experimental condition, including vehicle-treated controls. Fold induction in HIV RNA levels was calculated as a ratio of mean signals from compound-treated and vehicle (DMSO)-treated control samples from the same donor under identical conditions. […] For experiments using blood-derived resting CD4 T cells, culture supernatants from 3 replicate wells were combined and analyzed using the COBAS system.

[9] = tested on: HIV gag-pol RNA from resting CD4 T cells of a cART-suppressed patient; experiment: Single-genome sequencing of HIV RNA in culture supernatants; assay type: cell-based; settings: 2 µM SAHA, day 7
Description: In parallel, we assessed the sequence diversity of HIV proviruses integrated in genomic DNA of resting CD4 T cells from the same culture.
Figure 8 Phylogenetic analysis of HIV sequences expressed ex vivo following the latency reversal. […] Single-genome sequencing was used to analyze patient HIV proviral DNA and plasma RNA at the initiation of treatment (day 0), together with the ex vivo induced HIV RNA in cell culture supernatants at the end of treatment (day 7). […] Identified HIV DNA and RNA sequences were aligned and the phylogenetic tree was constructed using Clustal W and MEAG5.
Single-genome sequencing of a portion of HIV-1 gag-pro-pol amplified from cell culture supernatants or cellular DNA extracts was performed as previously described [34]–[36]. Sequences were aligned using ClustalW and neighbor-joining phylogenetic analysis was performed using MEGA5. Trees were rooted on the subtype B consensus sequence (www.hiv.lanl.gov).

[10] = tested on: latent HIV in memory CD4 T cells from HIV-infected patients on suppressive cART
Description: We used HIV RNA in cell culture supernatants as a surrogate marker for virion release from treated cells. We assumed that extracellular virions would accumulate over the course of several days; therefore, the duration of culture was extended to 6 days to maximize assay sensitivity.
as §3, §4, §5

[11] = tested on: memory CD4 cells from HIV-infected patients; experiment: Viability of primary memory CD4 cells (Cell TiterGlo, 6 days); assay type: cell-based, human; settings: same incubation period (6 days), data not shown
Description: Cell viability was determined using a Cell TiterGlo reagent 6 days after the initiation of treatment and is expressed as a percentage of cell viability relative to control vehicle-treated memory CD4 cells from the same donors. The data represent mean +/− S.D. from three independent donors. (TIF) Click here for additional data file.

[12] = Human immunodeficiency virus 1, NL43, CD4+ T, 48 h

CCN(CC)Cc1ccc2cc(COC(=O)Nc3ccc(C(=O)NO)cc3)ccc2c1 [Givinostat, givinostat]
EC50 [1, 12]: 95.8 ± 20.3 nM
CC50 at 48 h [2]: 24000 nM

Nc1ccccc1NC(=O)c1ccc(CNc2nccc(-c3cccnc3)n2)cc1 [Mocetinostat, mocetinostat]
EC50 [1, 12]: 13600 nM
CC50 at 48 h [2]: 10100 nM

Cc1[nH]c2ccccc2c1CCNCc1ccc(/C=C/C(=O)NO)cc1 [PNB, panobinostat]
HIV transcription and viremia in peripheral blood (HIV; multiple doses of PNB, HIV-positive patients on suppressive cART): induce intracellular HIV transcription and low-level viremia
EC50 [1, 12]: 10 nM
EC50 [1]: 10.1 ± 1 nM
HIV RNA avg ([3]; 6 hours): 4342 copies/mil cells and 2414 copies/mil cells
HIV RNA avg ([3]; 24 hours): 11600 copies/mil cells and 5606 copies/mil cells
HIV RNA avg ([3]; 48 hours): 1815 copies/mil cells and 783 copies/mil cells
persistence of intracellular HIV RNA induction ([3]; resting CD4 T cells): transient and diminished after 24 hours
persistence of inhibition of cell-associated HDAC activity [4]: transient and decreased after 24 hours of incubation
CC50 at 48 h [2]: > 2500 nM

CCCCc1nc2cc(/C=C/C(=O)NO)ccc2n1CCN(CC)CC [SB939, pracinostat]
EC50 [1, 12]: 212 ± 14 nM
CC50 at 48 h [2]: > 50000 nM

O=C(CCCCCCC(=O)Nc1ccccc1)NO [VOR, suberoylanilide hydroxamic acid]
fraction unbound [5]: 0.68
cell-associated HIV RNA at 48 hours [6]: decreased by 48 hours to levels detected in vehicle-treated cells
cell death after HIV activation [7]: does not lead to cell death
extracellular HIV RNA versus untreated controls ([8]; 0.5 µM VOR continuous 6 days): did not increase extracellular HIV RNA significantly
patient-derived cultures with measurable increase of extracellular HIV RNA ([8]; 1 µM VOR continuous 6 days): 3 of 7
effect on total proviral DNA in peripheral CD4 T cells (HIV; multiple-dose (14-day) trial of VOR): no apparent effect
mean increase in cell-associated HIV RNA levels (HIV; once-daily VOR for 14 consecutive days, 20 patients): ~3 fold
mean increase in HIV RNA levels in resting CD4 T cells (HIV; single 400 mg dose of VOR, 8 HIV-infected patients on cART): 4.8 fold
increases in the level of plasma viremia (HIV; single-dose and 14-day VOR studies): not observed
cell-associated HIV RNA at 48 hours ([3]; resting CD4 T cells, 1 µM VOR): decreased by 48 hours to levels detected in vehicle-treated cells
increase in intracellular HIV RNA levels versus vehicle ([3]; resting CD4 T cells, 1 µM VOR, 24-hour treatment): rapid, but transient and less-pronounced activation
persistence of intracellular HIV RNA induction ([3]; resting CD4 T cells): transient and diminished after 24 hours
sequences of HIV RNA recovered in culture supernatants [9]: No HIV RNA sequences were recovered
HIV RNA in culture supernatants ([10]; memory CD4 T cells, 1 µM VOR continuous 6 days, two patients): no significant increase
extracellular HIV RNA in culture supernatants ([10]; memory CD4 T cells, 0.5 and 1 µM VOR for 24 hours, day 6): lack of HIV RNA release
CC50 at 48 h [2]: > 25000 nM

CN(CC[C@H](N)CC(=O)N[C@H]1C=C[C@H](n2ccc(N)nc2=O)O[C@@H]1C(=O)O)C(=N)N [blasticidine]
release of HIV RNA into cell culture supernatants ([10]; highly cytotoxic control, data not shown): did not lead to release of detectable levels of HIV RNA
cell death [11]: > 80%
